# Results from ChEMBL document CHEMBL3430912, “GSK Tres Cantos Anti-Kinetoplastid Screening (TCAKS) Data”.
# Columns and labels:
# Trypanosoma cruzi [1] = assay: GSK_TCAKS: pIC50 Trypanosoma cruzi viability assay using beta-GAL activity. This assay was run at single shot at 5uM compound concentration per well. The biological reagents consisted of NIH-3T3 host cells and trypomastigotes parasitic cells; both cell types were set to a 3.3 * 10^5 cells/mL dilution in assay DMEM by means of a CASY cell counter device using a 60um capillary. 6 uL of the mixture were dispensed per well (about 1 * 10^3 host-cells and 1 * 10^3 parasites) with a Multidrop Combi dispenser. […] In all wells, the percentage of DMSO never exceeded 0.5%. Plates incubated for four days at 37C, 5% CO2. The substrate used for the assay fluorescence intensity (FLINT) readout was resorufin-beta-D-galactopiranoside (Sigma-Aldrich) at 5uM per well. It was diluted in PBS supplemented with the soft detergent Igepal (Fluka).; assay type: functional, organism-based, Mus musculus; conditions: Tulahuen, NIH3T3
# Trypanosoma cruzi [2] = assay: (§1) GSK_TCAKS: pIC50 Trypanosoma cruzi Imaging: Infected Cells. […] Cells were then washed once with PBS before infection. T. cruzi trypomastigotes, collected at days 5 to 8 after infection from LLC-MK2 parasite infected cultures, were allowed to swim out for 4h at 37C from a centrifuged pellet (2,500 rpm/10 min/room temperature). Trypomastigotes were then collected and counted in a CASY Cell Counter. Trypomastigotes, in supplemented DMEM, were added to H9c2 cultures in a multiplicity of infection of 1 and incubated for 18 h. Cells were washed once with PBS before incubation of the infected H9c2 monolayer with trypsin (Life-Technologies) to detach cells from the flask. Cells were counted in a CASY Cell Counter using a 150 um capillary and their density set at 5 * 10^4 cells per mL in supplemented assay DMEM. Infected H9c2 were dispensed into 384-well poly-lysine coated assay plates at 50uL per well using a Multidrop Combi dispenser. After seeding them, the plates were incubated at 37C, 5% CO2 for 72h. Cultures were then fixed and stained by addition of 50 uL of a solution containing 8% formaldehyde and 4 uM DRAQ5 DNA dye (BioStatus, UK) per well. […] Five images were collected per well for reliable statistical analysis. Automated image analysis was performed with a script developed on Acapella High Content Imaging and Analysis Software (PerkinElmer). Output: percentage of infected cells per well as a second infection marker.; assay type: functional, organism-based, Rattus norvegicus; conditions: H9c2, 4 h
# Trypanosoma cruzi [3] = assay: GSK_TCAKS: pIC50 Trypanosoma cruzi Imaging: Amastigotes/Cell. […] Cells were then washed once with PBS before infection. T. cruzi trypomastigotes, collected at days 5 to 8 after infection from LLC-MK2 parasite infected cultures, were allowed to swim out for 4h at 37C from a centrifuged pellet (2,500 rpm/10 min/room temperature). Trypomastigotes were then collected and counted in a CASY Cell Counter. Trypomastigotes, in supplemented DMEM, were added to H9c2 cultures in a multiplicity of infection of 1 and incubated for 18 h. Cells were washed once with PBS before incubation of the infected H9c2 monolayer with trypsin (Life-Technologies) to detach cells from the flask. Cells were counted in a CASY Cell Counter using a 150 um capillary and their density set at 5 * 10^4 cells per mL in supplemented assay DMEM. Infected H9c2 were dispensed into 384-well poly-lysine coated assay plates at 50uL per well using a Multidrop Combi dispenser. After seeding them, the plates were incubated at 37C, 5% CO2 for 72h. Cultures were then fixed and stained by addition of 50 uL of a solution containing 8% formaldehyde and 4 uM DRAQ5 DNA dye (BioStatus, UK) per well. […] Five images were collected per well for reliable statistical analysis. Automated image analysis was performed with a script developed on Acapella High Content Imaging and Analysis Software (PerkinElmer). Output: number of amastigotes per cell as infection level measurement.; assay type: functional, organism-based, Rattus norvegicus; conditions: H9c2, 4 h
# Trypanosoma cruzi [4] = assay: as §1, with “H2C9” for “Trypanosoma cruzi”, “H9c2 Host Cardiomyocytes.” for “Infected Cells.”, “Number” for “percentage”, “H9c2 Host Cardiomyocytes nuclei to determine drug-related cytotoxicity.” for “infected cells per well as a second infection marker.”; assay type: functional, organism-based, Rattus norvegicus; conditions: H9c2, 4 h
# Leishmania donovani [5] = assay: GSK_TCAKS: pIC50 Leishmania donovani viability assay using fluorescence intensity. Assay plates (1536-well) were prepared by adding 30nL per well of compound. For single shot assay, the final compound concentration was 5uM. […] Briefly, eGFP LdBOB axenic amastigotes were harvested, fixed and counted in a CASY cell counter (Roche-Applied Science). A final concentration of 1.5 * 10^5 cells per well were prepared in amastigote media containing 500 U/mL penicillin/streptomycin (Invitrogen) and 6uL was dispensed to each experimental well using a Multidrop Combi dispenser (Thermo Scientific). 6uL of assay media was dispensed to control columns used as reference for 100% compound response. Following incubation for 72 h at 37C, 5% CO2, 2 uL of resazurin was added to each well at a final concentration of 0.5 mM in phosphate buffered saline (PBS) with IGEPAL (Sigma-Aldrich), 0.05% (v/v).; assay type: functional, organism-based
# Leishmania donovani [6] = assay: (§2) GSK_TCAKS: pIC50 Leishmania donovani Imaging: Infected Macrophages. Assay plates (384-well) were prepared by adding 250nL of compound to each well. For single shot assay, the final compound concentration was 5 uM. […] Automated image analysis was performed with a script developed on Acapella High Content Imaging and Analysis Software (PerkinElmer). Output: Percent of infected macrophage cells were reported for each well.; assay type: functional, organism-based, Homo sapiens; conditions: THP-1
# Leishmania donovani [7] = assay: as §2, with “Amastigotes/Macrophages.” for “Infected Macrophages.”, “Average number” for “Percent”, “amastigotes per” for “infected”, “cell” for “cells”; assay type: functional, organism-based, Homo sapiens; conditions: THP-1
# Leishmania donovani [8] = assay: as §2, with “THP-1 Host” for “Infected”, “THP-1 cell count” for “Percent of infected macrophage cells”; assay type: functional, organism-based, Homo sapiens
# [9] = system: Trypanosoma brucei brucei; assay: GSK_TCAKS: pIC50 Trypanosoma brucei viability assay using fluorescence intensity. Assay plates (1536-well) were prepared by dispensing 25nL of compound solution per well using an Echo acoustic dispenser (Labcyte).; assay type: functional, organism-based; conditions: Lister 427, 2 h
# [10] = system: Trypanosoma brucei brucei; assay: GSK_TCAKS: pIC50 Trypanosoma brucei viability assay using luminiscence. Assay plates (1536-well) were prepared. T. brucei cultures were harvested and counted in a CASY cell counter. A parasite suspension was prepared at a final concentration of 5 * 10^4 cells/mL in complete HMI9 medium and 6uL was dispensed to all wells containing compounds using a Multidrop Combi dispenser. 6uL of HMI9 media with 0.4% DMSO were dispensed to control columns. Plates were incubated for 24 h at 37C, 5% CO2 then tempered for 10 min at room temperature. ATP content was quantified by adding 4 uL of CellTiter-Glo Reagent (Promega) according to the manufacturer's instructions. Luminescence was measured using a ViewLux.; assay type: functional, organism-based; conditions: Lister 427, CASY
# [11] = GSK_TCAKS: pIC50 HepG2 human cell line viability assay using luminiscence. […] Seeding density was checked to ensure that new mono-layers were not more than 50% confluent at the time of harvesting. Cell suspension was added to 500 mL of the same medium at a final density of 1.2 * 10^5 cells/mL. This cell suspension was dispensed (25 uL, 3000 cells per well) into 384-well clear-bottom plates using a Multidrop Combi dispenser. Prior to addition of the cell suspension, the screening compounds (250 nL) were pre-dispensed into the plates with an Echo liquid handler. Plates were incubated for 48 h at 37C, 5% CO2. After incubation, plates equilibrated at room temperature for 30 min before proceeding to develop the luminescent signal. The signal developer, CellTiter-Glo Reagent, was allowed to equilibrate at room temperature for 30 min and added to the plates (25uL per well) using a Multidrop Combi dispenser. Plates were left for 10 min at room temperature for stabilization and then read using a ViewLux.; assay type: toxicity, cell-based
# [12] = biological target: Sterol 14-alpha demethylase (Trypanosoma cruzi (strain CL Brener), UniProt Q7Z1V1); assay: GSK_TCAKS: pIC50 CYP51 from Trypanosoma cruzi.; assay type: functional
# Sequence of Sterol 14-alpha demethylase (Q7Z1V1 whole entry): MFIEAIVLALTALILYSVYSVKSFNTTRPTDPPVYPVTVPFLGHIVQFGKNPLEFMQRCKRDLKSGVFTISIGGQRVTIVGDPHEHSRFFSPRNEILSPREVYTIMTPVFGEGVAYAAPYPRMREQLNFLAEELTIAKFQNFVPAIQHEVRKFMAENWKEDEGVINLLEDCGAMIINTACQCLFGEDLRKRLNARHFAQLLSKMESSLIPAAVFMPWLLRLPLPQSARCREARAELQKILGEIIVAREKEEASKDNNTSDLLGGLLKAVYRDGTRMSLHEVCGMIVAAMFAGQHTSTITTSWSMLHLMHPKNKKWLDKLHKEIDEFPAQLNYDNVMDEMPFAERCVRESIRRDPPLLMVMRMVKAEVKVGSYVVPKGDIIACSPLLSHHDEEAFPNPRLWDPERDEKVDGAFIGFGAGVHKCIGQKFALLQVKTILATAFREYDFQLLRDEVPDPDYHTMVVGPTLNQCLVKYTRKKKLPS
Compound,IC50 (Trypanosoma cruzi [1]) [µM],IC50 (Trypanosoma cruzi [2]) [µM],IC50 (Trypanosoma cruzi [3]) [µM],IC50 (Trypanosoma cruzi [4]) [µM],IC50 (Leishmania donovani [5]) [µM],IC50 (Leishmania donovani [6]) [µM],IC50 (Leishmania donovani [7]) [µM],IC50 (Leishmania donovani [8]) [µM],IC50 [9] [µM],IC50 [10] [µM],IC50 at 48 h [11] [µM],IC50 [12] [µM]
Cn1nc(-c2ccc(NC(=O)Cc3ccccc3Cl)cc2)c2c(N)ncnc21,2,1.26,1,7.94,> 50.1,> 50.1,> 50.1,> 50.1,0.398,0.251,> 100,63.1
Cc1cc(Nc2ccc(C#N)c(Cl)c2C)[nH]n1,25.1,> 50.1,20,> 50.1,50.1,> 50.1,> 50.1,20,0.00794,0.251,> 100,39.8
Cc1c(Nc2cc(C3CC3)n[nH]2)ccc(C#N)c1Cl,2.51,25.1,15.8,10,20,39.8,25.1,25.1,0.398,0.631,39.8,20
CCOC(=O)c1cn[nH]c1S(=O)(=O)N1CCC1c1ccccc1 (stereo unspecified),> 50.1,> 50.1,> 50.1,> 50.1,> 50.1,> 50.1,> 50.1,> 50.1,0.631,0.794,> 100,50.1
COc1cc(-c2noc(CC#N)n2)ccc1OC(F)F,39.8,39.8,25.1,31.6,> 50.1,> 50.1,> 50.1,50.1,0.631,0.631,> 100,100
CS(=O)(=O)c1ccc(Nc2nccc(Nc3n[nH]c4ccc(F)cc34)n2)c(F)c1,7.94,31.6,3.98,15.8,12.6,12.6,10,15.8,0.501,0.794,79.4,39.8
Cc1nc2c(-c3ncn[nH]3)cc(NC(=O)Cc3ccccc3)cn2c1C,1,1,0.794,6.31,0.794,0.398,0.316,7.94,3.16,10,15.8,10
Cc1[nH]nc(Nc2ccnc3[nH]ccc23)c1C,3.98,> 50.1,> 50.1,> 50.1,> 50.1,> 50.1,> 50.1,> 50.1,0.126,0.251,> 100,79.4
COc1cc(Nc2nccc(Nc3onc(C)c3C)n2)cc(S(=O)(=O)C2CCOCC2)c1,6.31,25.1,12.6,10,39.8,> 50.1,5.01,39.8,0.501,0.501,31.6,7.94
O=C(NCCc1ccn(-c2ccccc2)n1)C1CCCCC1,1.26,1,1,> 50.1,> 50.1,> 50.1,> 50.1,> 50.1,0.251,0.316,> 100,100
CC(C)(C)C(=O)Nc1cc(C2CC2)nn1-c1nc2c(c(=O)[nH]1)CCCC2,0.501,0.501,0.126,2,0.0794,5.01,2,7.94,0.158,0.2,> 100,> 100
Cc1cc(NC(=O)C2CCCCC2)n(-c2nc3c(c(=O)[nH]2)CCC3)n1,0.316,0.501,0.158,2,0.0398,5.01,3.16,10,0.126,0.158,50.1,> 100
Cc1cc(NC(=O)CC2CCCCC2)n(-c2nc3c(c(=O)[nH]2)CCC3)n1,0.251,0.316,0.126,3.98,0.0316,3.16,1.58,3.98,0.2,0.158,> 100,> 100
Cc1ccc2c(c1)SC(C(=O)Nc1nnc(-c3ccccn3)[nH]1)C2 (stereo unspecified),5.01,7.94,6.31,> 50.1,6.31,3.98,2.51,25.1,3.98,> 39.8,25.1,> 100
Cn1nccc1NC(=O)Cn1ccc(-c2ccncc2)n1,> 50.1,> 50.1,> 50.1,> 50.1,> 50.1,> 50.1,> 50.1,> 50.1,0.631,0.631,> 100,6.31
Cc1cn[nH]c1C1CCCN(Cc2nc3ccccc3n2C)C1 (stereo unspecified),3.16,20,10,> 50.1,15.8,3.98,3.16,20,6.31,7.94,50.1,1.26
COc1ccc(Cl)cc1CC(=O)Nc1nnc(-c2ccccn2)[nH]1,10,> 50.1,10,> 50.1,3.98,6.31,5.01,> 50.1,15.8,> 39.8,31.6,> 100
O=C(Cc1ccc2c(c1)CCC2)Nc1nnc(-c2ccccn2)[nH]1,10,10,10,> 50.1,7.94,6.31,6.31,> 50.1,20,> 39.8,50.1,2.51
